In one assay the target is T1, 5-lipoxygenase (5-LO) (Homo sapiens, UniProt P09917).
T1 sequence (P09917 1-674): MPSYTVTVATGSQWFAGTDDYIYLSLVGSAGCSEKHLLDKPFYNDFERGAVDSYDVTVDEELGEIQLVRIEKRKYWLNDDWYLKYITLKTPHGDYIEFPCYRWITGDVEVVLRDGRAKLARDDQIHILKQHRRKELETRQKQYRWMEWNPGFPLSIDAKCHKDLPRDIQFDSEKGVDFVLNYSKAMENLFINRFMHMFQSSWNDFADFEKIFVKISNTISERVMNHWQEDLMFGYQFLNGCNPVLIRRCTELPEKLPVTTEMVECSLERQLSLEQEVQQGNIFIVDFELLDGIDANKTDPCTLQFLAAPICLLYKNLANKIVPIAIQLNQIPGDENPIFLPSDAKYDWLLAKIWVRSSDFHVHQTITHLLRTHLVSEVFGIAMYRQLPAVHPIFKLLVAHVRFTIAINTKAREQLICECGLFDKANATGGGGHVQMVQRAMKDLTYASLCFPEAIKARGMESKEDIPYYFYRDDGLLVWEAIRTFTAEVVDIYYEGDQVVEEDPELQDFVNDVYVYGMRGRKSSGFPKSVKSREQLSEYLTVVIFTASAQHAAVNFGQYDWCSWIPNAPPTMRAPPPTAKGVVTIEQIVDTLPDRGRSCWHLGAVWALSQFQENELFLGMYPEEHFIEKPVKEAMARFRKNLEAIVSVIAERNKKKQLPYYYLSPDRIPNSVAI
T1 sequence (P20292 1-161 partner): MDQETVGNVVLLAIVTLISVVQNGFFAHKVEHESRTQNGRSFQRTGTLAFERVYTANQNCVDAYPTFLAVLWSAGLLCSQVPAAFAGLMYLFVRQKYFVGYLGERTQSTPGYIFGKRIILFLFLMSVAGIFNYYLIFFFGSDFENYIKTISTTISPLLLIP
As to the kind of experiment: 5-LO product biosynthesis. The assay is classed as cell-based.

In the next assay the target is 12-lipoxygenase (12-LO) (Homo sapiens, UniProt P18054). Put plainly: 12-HETE biosynthesis. The assay is classed as cell-based.
12-lipoxygenase (12-LO), sequence (P18054 whole entry): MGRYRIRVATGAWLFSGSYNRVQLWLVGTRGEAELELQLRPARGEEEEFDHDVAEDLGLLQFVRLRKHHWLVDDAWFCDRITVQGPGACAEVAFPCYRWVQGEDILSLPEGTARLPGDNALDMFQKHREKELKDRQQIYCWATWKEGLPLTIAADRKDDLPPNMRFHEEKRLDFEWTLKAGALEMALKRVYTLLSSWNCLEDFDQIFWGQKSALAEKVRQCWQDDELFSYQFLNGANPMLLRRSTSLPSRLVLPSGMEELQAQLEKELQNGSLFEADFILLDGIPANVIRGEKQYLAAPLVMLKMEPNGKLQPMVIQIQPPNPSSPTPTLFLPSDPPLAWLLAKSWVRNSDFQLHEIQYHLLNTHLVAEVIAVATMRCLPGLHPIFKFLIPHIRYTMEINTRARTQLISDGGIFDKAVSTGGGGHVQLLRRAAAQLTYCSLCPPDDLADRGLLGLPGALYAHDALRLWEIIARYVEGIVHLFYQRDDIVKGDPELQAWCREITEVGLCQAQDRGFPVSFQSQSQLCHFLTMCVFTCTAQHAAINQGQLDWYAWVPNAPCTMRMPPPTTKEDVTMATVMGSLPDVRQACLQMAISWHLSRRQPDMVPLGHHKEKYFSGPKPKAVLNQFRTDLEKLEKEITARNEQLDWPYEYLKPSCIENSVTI

At 5-lipoxygenase (5-LO), `O=C(/C=C/c1ccc(O)c(O)c1)OCCc1ccccc1` [compound 1, Caffeic acid phenethyl ester] displayed an IC50 of 1000 nM. For the same compound, the “% remaining at 1 μM” value at 12-lipoxygenase (12-LO) came out at 74.3.

These data come from PMC12050906 (Drug Development Research, 2025).
